Data on 3 compounds can be found in ChEMBL document CHEMBL2434914 (Bioorg Med Chem Lett, 2013).

In one test the target is Histone deacetylase 3 (Homo sapiens, UniProt O15379). In words: Inhibition of HDAC3 (unknown origin) using MAZ1600 and MAZ1675 as substrate assessed as fluorogenic release of 7-amino-4-methylcoumarin from substrate by optimized homogenous assay.
The target of the next test is Histone deacetylase 2 (Homo sapiens, UniProt Q92769). The test can be described thus: Inhibition of HDAC2 (unknown origin) using MAZ1600 and MAZ1675 as substrate assessed as fluorogenic release of 7-amino-4-methylcoumarin from substrate by optimized homogenous assay.
Sequence of Histone deacetylase 2 (Q92769 whole entry): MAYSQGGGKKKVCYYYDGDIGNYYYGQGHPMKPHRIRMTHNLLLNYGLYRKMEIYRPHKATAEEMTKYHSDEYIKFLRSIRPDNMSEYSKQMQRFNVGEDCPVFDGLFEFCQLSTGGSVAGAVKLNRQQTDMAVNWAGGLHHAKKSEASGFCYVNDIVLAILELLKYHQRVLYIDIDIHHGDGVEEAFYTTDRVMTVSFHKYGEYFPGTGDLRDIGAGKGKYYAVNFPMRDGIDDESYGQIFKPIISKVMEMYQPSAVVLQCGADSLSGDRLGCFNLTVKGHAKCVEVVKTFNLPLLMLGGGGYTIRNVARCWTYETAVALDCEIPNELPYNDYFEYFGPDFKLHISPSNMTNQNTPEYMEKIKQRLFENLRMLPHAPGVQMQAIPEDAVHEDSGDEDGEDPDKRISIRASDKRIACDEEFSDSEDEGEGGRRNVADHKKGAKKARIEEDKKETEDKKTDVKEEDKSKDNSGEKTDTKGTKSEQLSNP
Test [1] concerns the target T1, Protein deacetylase HDAC6 (Homo sapiens, UniProt Q9UBN7).
T1 sequence (Q9UBN7 whole entry): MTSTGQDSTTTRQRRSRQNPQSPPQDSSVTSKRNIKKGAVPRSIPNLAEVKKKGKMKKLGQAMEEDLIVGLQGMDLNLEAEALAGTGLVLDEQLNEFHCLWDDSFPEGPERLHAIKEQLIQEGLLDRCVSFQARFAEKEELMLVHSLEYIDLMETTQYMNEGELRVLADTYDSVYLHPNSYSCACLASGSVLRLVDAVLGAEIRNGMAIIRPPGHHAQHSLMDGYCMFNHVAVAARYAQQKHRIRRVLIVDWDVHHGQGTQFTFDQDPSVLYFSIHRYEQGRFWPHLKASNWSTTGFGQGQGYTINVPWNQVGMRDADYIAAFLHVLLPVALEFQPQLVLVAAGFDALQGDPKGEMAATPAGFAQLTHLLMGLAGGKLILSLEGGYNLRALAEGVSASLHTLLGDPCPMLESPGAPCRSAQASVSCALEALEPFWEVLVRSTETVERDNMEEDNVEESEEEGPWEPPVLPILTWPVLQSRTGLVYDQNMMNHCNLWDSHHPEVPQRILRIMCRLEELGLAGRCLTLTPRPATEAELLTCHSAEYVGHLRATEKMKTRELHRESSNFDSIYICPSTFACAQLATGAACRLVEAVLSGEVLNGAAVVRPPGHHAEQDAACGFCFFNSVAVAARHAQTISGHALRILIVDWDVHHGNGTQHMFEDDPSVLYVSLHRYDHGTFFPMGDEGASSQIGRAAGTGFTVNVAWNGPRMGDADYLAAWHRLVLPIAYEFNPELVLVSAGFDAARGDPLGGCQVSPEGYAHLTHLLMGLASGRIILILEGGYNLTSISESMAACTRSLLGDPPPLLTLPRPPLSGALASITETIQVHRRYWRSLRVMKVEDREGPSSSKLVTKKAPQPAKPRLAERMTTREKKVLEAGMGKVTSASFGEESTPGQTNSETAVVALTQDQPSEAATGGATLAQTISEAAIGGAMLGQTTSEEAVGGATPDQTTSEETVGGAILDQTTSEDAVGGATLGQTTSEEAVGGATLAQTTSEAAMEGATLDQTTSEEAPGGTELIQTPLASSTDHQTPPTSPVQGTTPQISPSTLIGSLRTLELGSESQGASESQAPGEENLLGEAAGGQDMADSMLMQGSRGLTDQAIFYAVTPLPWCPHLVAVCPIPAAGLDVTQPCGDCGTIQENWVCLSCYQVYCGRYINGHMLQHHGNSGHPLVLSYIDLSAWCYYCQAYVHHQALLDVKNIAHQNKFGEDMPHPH
In words: Inhibition of HDAC6 (unknown origin) using MAZ1600 and MAZ1675 as substrate assessed as fluorogenic release of 7-amino-4-methylcoumarin from substrate by optimized homogenous assay.

Another test deals with Histone deacetylase 1 (Homo sapiens, UniProt Q13547). The test can be described thus: Inhibition of HDAC1 (unknown origin) using MAZ1600 and MAZ1675 as substrate assessed as fluorogenic release of 7-amino-4-methylcoumarin from substrate by optimized homogenous assay.
Sequence of Histone deacetylase 1 (Q13547 whole entry): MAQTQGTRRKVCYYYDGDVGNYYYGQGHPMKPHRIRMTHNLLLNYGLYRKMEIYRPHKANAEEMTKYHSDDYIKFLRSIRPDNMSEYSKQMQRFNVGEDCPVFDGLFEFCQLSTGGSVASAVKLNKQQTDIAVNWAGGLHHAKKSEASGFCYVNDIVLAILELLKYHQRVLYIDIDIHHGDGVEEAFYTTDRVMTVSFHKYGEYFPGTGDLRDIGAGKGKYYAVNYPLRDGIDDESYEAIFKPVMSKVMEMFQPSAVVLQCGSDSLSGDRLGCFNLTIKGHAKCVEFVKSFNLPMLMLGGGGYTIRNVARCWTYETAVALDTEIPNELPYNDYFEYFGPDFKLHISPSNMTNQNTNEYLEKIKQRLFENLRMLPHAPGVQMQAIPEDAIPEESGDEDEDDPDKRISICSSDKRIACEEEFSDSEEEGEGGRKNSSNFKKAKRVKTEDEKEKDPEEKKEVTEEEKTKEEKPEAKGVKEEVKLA
The nature of test [2]: Cytotoxicity against human MM1S cells after 48 hrs by ATPlite assay. Format: functional, cell-based. Conditions: MM1.S.
For the next test, the target named is T2, Histone deacetylase 8 (Homo sapiens, UniProt Q9BY41).
T2 sequence (Q9BY41 whole entry): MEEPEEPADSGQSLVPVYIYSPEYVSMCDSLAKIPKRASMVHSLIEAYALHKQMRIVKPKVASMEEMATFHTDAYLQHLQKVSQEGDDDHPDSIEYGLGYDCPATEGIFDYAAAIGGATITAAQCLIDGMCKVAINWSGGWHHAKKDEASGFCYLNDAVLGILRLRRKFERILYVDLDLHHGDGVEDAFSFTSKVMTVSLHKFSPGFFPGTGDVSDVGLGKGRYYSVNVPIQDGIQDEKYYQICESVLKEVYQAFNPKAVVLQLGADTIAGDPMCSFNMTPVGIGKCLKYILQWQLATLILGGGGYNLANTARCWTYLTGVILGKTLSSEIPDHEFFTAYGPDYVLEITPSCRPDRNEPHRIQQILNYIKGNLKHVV
In words: Inhibition of HDAC8 (unknown origin) using MAZ1600 and MAZ1675 as substrate assessed as fluorogenic release of 7-amino-4-methylcoumarin from substrate by optimized homogenous assay.

For the next test, the target named is T3, Histone deacetylase 7 (Homo sapiens, UniProt Q8WUI4).
T3 sequence (Q8WUI4 whole entry): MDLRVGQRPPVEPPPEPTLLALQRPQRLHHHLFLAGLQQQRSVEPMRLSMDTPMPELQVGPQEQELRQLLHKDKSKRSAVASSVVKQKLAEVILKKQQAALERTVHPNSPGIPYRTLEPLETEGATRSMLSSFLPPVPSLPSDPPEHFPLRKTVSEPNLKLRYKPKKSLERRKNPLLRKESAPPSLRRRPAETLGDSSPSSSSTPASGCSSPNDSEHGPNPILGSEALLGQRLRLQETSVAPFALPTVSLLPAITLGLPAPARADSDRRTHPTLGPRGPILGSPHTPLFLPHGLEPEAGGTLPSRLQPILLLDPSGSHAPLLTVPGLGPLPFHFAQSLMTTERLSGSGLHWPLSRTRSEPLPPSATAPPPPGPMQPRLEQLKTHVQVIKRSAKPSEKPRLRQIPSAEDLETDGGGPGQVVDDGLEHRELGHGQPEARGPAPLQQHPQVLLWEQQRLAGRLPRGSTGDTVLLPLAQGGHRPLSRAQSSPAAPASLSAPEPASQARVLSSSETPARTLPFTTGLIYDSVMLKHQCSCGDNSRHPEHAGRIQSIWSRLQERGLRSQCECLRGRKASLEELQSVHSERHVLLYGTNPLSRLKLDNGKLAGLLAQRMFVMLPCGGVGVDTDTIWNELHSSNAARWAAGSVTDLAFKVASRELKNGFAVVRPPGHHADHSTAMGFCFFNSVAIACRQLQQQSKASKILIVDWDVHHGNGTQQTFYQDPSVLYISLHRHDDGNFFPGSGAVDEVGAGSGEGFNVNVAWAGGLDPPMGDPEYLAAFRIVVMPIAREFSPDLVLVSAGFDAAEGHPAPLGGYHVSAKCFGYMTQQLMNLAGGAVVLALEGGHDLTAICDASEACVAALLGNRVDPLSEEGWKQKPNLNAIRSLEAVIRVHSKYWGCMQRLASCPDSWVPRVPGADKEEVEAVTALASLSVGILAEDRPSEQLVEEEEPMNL
The test can be described thus: Inhibition of HDAC7 (unknown origin) using MAZ1600 and MAZ1675 as substrate assessed as fluorogenic release of 7-amino-4-methylcoumarin from substrate by optimized homogenous assay.

Sequence of Histone deacetylase 3 (O15379 whole entry): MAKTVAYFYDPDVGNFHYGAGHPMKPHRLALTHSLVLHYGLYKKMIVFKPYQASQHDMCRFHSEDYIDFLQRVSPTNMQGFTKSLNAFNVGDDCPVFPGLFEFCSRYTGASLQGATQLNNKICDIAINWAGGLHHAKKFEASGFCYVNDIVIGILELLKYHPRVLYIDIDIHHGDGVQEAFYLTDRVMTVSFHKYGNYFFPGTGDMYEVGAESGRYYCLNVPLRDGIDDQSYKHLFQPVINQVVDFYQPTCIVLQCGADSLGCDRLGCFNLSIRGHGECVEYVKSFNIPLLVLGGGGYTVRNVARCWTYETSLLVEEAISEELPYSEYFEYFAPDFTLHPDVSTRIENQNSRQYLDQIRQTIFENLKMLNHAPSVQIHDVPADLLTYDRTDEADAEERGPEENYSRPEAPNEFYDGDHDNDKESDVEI

For `CCCCCCCC(=O)SCC/C=C/[C@@H]1CC(=O)NCc2nc(co2)C2=N[C@@](C)(CS2)C(=O)N[C@@H](C(C)C)C(=O)O1`, the half-inhibitory concentration (IC50) (as a rule, the concentration that inhibits the measured activity by half) at Histone deacetylase 3 came to 1900 nM; on Histone deacetylase 2 it was 2100 nM; in test [1], 1100 nM; on Histone deacetylase 1, 950 nM; in test [2], 120 nM.

With `CC(C)[C@@H]1NC(=O)[C@]2(C)CSC(=N2)c2coc(n2)CNC(=O)C[C@@H](/C=C/CCS)OC1=O`, the half-maximal inhibitory concentration (IC50) turned out to be 7.2 nM on Histone deacetylase 3; 20 nM on Histone deacetylase 2; 98 nM in test [1]; 1200 nM on Histone deacetylase 8; 4.4 nM at Histone deacetylase 1; 6200 nM in test [2]. Further, at Histone deacetylase 7, the concentration for half-maximal inhibition (IC50) is 960 nM.

In the case of `CC(C)[C@@H]1NC(=O)[C@]2(C)CSC(=N2)c2coc(n2)CNC(=O)C[C@@H](/C=C/CCSSCC/C=C/[C@@H]2CC(=O)NCc3nc(co3)C3=N[C@@](C)(CS3)C(=O)N[C@@H](C(C)C)C(=O)O2)OC1=O`, the half-inhibitory concentration (IC50) at Histone deacetylase 3 came out at 550 nM; on Histone deacetylase 2 it was 1300 nM; in test [1] it was 50 nM; on Histone deacetylase 1 it was 150 nM; in test [2], 910 nM.
